pEC50, pIC50: −log10 of the molar value.
How the values were obtained:
[1] = tested on: rat H9c2 myocytes; assay: Inhibition of TAG accumulation in rat H9c2 myocytes; assay type: cell-based; details: data not shown
[2] = tested on: human skeletal myotubes; assay: Triglyceride accumulation in oleate-loaded human skeletal myotubes; assay type: cell-based; details: Myotube, 100 μM oleate 24 hours, read-out: EC50, inhibition of TAG accumulation
Experimental: Human skeletal myotubes were differentiated for 8 days. On day 7, 100 μM of oleic acid complexed to fatty acid-free BSA was added to the cells with the indicated concentration of test compound for 24 hours. Following incubation with oleate and compound, cells were formaldehyde fixed and stained with AdipoRed™ (Lonza). Triglyceride accumulation was measured using signal intensity at excitation 540/emission 590 nm (Bio-Tek Instruments, Inc.). Dose response curves were generated in Prism 6 (GraphPad Software). EC50 values were calculated using non-linear regression analysis. For biochemical measurement of triglyceride, human skeletal myotubes were incubated with oleate-BSA and test compound as described above. After 24 hour incubation, cells were collected with a lysis buffer containing 0.1% IGEPAL CA-630 (Sigma-Aldrich) in PBS. The harvested cells were sonicated for 5 seconds and then centrifuged at 10,000×g for 10 minutes at 4° C. The supernatant was removed and stored on ice. TAG levels were quantified using Infinity™ Triglycerides Liquid Stable Reagent (Thermo Scientific), following the manufacturer's instructions for colorimetric assay.
Student's t-test, Mann Whitney test, one-way ANOVA with Bonferroni post hoc test, or two-way ANOVA with Tukey post hoc test was performed to determine statistical significance as indicated. […]

[3] = target: T1, MondoA (Homo sapiens, UniProt Q9HAP2); assay: Intracellular localization of MondoA (immunolocalization); assay type: cell-based; details: human skeletal myoblasts; data not shown
T1 construct: endogenous in cells; host or cells: human skeletal myoblasts
Experimental: The activity of ChREBP and MondoA is governed, in part, by nuclear-cytoplasmic shuttling mechanisms that are incompletely understood but likely involve glucose metabolites and phosphorylation (Stoltzman, et al., Proc Natl Acad Sci USA. 2008; 105(19):6912-6917; Filhoulaud, et al., Trends Endocrinol Metab. 2013; 24(5):257-268). Accordingly, the effect of SBI-477 on intracellular localization of MondoA was assessed. […] The results of immunoblotting studies conducted with fractionated cellular extracts further supported this conclusion (FIG. 5D).
T1 sequence (Q9HAP2 whole entry): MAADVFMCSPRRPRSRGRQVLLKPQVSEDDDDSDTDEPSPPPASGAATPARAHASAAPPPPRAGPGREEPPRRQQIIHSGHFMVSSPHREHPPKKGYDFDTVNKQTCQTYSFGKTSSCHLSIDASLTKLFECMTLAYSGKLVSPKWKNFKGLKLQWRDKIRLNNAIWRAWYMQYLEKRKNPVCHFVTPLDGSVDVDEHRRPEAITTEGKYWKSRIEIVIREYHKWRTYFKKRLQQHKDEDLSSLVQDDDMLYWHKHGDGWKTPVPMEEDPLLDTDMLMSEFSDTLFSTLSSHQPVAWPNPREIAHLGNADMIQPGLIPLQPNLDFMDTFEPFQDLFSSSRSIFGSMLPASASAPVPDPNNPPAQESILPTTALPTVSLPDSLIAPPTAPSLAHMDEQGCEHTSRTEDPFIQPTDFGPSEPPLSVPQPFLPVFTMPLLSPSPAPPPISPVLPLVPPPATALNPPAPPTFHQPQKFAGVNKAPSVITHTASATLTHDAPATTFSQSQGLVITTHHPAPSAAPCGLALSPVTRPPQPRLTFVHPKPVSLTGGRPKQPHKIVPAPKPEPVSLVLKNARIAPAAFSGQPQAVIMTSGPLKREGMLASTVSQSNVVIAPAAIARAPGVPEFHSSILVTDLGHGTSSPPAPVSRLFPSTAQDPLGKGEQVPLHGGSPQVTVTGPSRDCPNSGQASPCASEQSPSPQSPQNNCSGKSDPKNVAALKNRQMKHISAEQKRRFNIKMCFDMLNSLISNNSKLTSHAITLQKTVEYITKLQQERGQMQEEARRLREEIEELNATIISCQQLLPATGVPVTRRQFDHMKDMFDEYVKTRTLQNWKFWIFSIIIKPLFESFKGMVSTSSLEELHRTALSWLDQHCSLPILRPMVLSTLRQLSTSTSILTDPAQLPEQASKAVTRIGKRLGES

[4] = target: T2, MondoA (Homo sapiens, UniProt Q9HAP2); assay: ChIP of MondoA occupation on TXNIP and ARRDC4 promoter ChoREs; assay type: cell-based; details: human skeletal myotubes
T2 construct: Proteins were immunoprecipitated by using anti-MondoA (Bethyl Laboratories; catalog number A303-195A); endogenous in cells; host or cells: differentiated primary human skeletal myotubes
Experimental: ChIP assays were performed as previously described (Gan, et al., Genes Dev., 2011, 25(24):2619-2630). Briefly, differentiated human skeletal myotubes were cross-linked with 1% formaldehyde for 10 minutes at room temperature, and glycine was added to stop the cross-linking reaction. Cells were harvested and lysed. For chromatin fragmentation, sonication was performed using a Bioruptor (Diagenode). Proteins were immunoprecipitated by using anti-MondoA (Bethyl Laboratories; catalog number A303-195A) or IgG control (Sigma; catalog number 15006) overnight at 4° C. DNA fragments were purified using a QIAquick PCR purification kit (Qiagen) and quantified by a LightCycler® 480 Instrument II (Roche) with the specific primers listed in Table 1.
T2 sequence (Q9HAP2 2-919 limits assumed): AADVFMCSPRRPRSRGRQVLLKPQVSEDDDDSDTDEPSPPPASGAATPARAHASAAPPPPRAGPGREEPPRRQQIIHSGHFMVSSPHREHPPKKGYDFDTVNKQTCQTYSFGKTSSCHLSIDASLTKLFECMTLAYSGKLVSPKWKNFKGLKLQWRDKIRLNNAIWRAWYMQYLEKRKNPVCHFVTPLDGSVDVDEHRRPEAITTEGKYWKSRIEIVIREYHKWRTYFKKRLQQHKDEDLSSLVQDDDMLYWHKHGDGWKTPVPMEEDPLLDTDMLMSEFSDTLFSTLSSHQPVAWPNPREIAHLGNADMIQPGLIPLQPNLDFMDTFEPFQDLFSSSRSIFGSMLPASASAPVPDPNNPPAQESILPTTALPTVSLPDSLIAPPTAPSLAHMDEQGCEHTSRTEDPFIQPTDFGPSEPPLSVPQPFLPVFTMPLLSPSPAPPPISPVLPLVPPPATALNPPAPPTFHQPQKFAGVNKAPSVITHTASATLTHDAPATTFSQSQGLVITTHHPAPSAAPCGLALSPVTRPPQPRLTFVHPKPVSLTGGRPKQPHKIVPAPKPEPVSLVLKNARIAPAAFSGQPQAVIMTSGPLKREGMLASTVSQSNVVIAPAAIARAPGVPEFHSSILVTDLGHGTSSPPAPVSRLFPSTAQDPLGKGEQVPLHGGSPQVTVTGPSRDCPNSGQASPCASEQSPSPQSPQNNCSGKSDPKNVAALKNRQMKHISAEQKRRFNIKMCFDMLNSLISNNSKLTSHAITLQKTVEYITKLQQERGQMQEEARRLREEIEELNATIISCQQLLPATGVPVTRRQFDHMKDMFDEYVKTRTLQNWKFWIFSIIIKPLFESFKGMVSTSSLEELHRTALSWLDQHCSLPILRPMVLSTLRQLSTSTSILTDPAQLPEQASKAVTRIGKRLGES

[5] = target: SCD-1 (Homo sapiens, UniProt O00767); assay: Direct inhibition of SCD-1 activity; assay type: biochemical; details: data not shown
[6] = tested on: AMPK; assay: Western blot of AMPK activation; assay type: cell-based, human; details: 24 hours
Experimental: (§1) FIGS. 3D and G show SBI-477-mediated increase in glucose uptake in oleate-loaded skeletal myotubes (FIG. 3D) SBI-477 increases glucose uptake in oleate-loaded human skeletal myotubes. Basal and insulin-stimulated [3H]2-DG uptake was measured in human skeletal myotubes following treatment with SBI-477 for 24 hours in the presence of 100 μM oleate or BSA as a control. *p<0.05 vs. vehicle, †p<0.05 vs. vehicle/insulin by one-way ANOVA with Bonferroni post hoc test. FIG. 3G—Western blot analysis (left) of human myotubes treated with SBI-477 for 24 hours was performed to determine activation of S6K and AMPK using the indicated phospho-specific antibodies. Insulin treatment (100 nM) for 30 minutes was used as positive control. Quantitation (right) of the Western blot data is shown (n=4-5). *p<0.05 vs. Vehicle by one-way ANOVA with Bonferroni post hoc test. The data represent mean±SD.
(§2) Cells were lysed in the RIPA buffer containing 1% NP-40, 5 mM Na4P2O7, 1 mM EDTA, 20 mM NaF, 2 mM Na3VO4, 1× cOmplete™ protease inhibitor (Roche) and 1 mM phenylmethylsulfonyl fluoride. Whole cell lysates were subjected to SDS-PAGE and transferred to a nitrocellulose membrane. The blots were hybridized with specific antibodies and developed with enhanced chemiluminescence kit (Pierce). […] Protein quantification was performed using FluorChemQ (Alpha Innotech) and normalized to […]-actin or total protein where indicated.

[7] = tested on: MGAT1/2/3; assay: Direct inhibition of MGAT1/2/3 activity; assay type: biochemical; details: data not shown
[8] = tested on: primary murine skeletal myocytes; assay: TAG accumulation in primary murine skeletal myocytes; assay type: cell-based; details: Mus musculus; primary murine skeletal myocytes; read-out: Activity Score (IC50), triacylglyceride (TAG) accumulation
[9] = tested on: S6K; assay: Western blot of pS6K (T389); assay type: cell-based, human; details: 24 hours
Experimental: as §1, §2

Chain of SCD-1 (O00767 whole entry, species assumed): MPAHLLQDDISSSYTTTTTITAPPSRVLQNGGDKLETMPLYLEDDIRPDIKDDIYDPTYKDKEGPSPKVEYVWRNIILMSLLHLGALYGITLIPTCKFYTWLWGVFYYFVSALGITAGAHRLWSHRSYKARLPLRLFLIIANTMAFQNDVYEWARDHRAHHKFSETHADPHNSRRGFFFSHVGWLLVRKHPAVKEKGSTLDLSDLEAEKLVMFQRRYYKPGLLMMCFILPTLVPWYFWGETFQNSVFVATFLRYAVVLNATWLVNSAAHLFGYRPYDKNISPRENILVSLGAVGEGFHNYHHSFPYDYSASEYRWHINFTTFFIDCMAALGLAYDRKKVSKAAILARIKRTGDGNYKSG

COc1ccc(-c2csc(NC(=O)c3ccc(OCC(=O)N4CCOCC4)c(OC)c3)n2)cc1 [Cpd. 7, 3-methoxy-N-(4-(4-methoxyphenyl)thiazol-2-yl)-4-(2-morpholino-2-oxoethoxy)benzamide]
pEC50 [1]: ~7.00
pEC50 [2]: ~6.00
Nuclear localization of MondoA [3]: near complete nuclear exclusion of MondoA
Occupation by MondoA of ChoREs in TXNIP and ARRDC4 promoter regions [4]: inhibited
Direct inhibition of SCD-1 activity [5]: not found that SBI-477 directly inhibits
AMPK activation [6]: activation of AMPK
Direct inhibition of MGAT1/2/3 activity [7]: not found that SBI-477 directly inhibits
pIC50 [8]: > 6.00
Levels of pS6K (T389) [9]: reduced

From patent US11028061B2, “Modulators of myocyte lipid accumulation and insulin resistance and methods of use thereof” (Sanford Burnham Prebys Medical Discovery Institute, priority 2015, dated 2021)
